According to US20260334439A1, “BCAT2 INHIBITORS” (Agios Pharmaceuticals, Inc., priority 2023, published 2026):

Experiments:
BCAT2 [1] = molecular target: T1, BCAT2 (Homo sapiens, UniProt O15382); assay: BCAT2 in vitro enzyme inhibition assay (hBCAT2, glutamate dehydrogenase/diaphorase/resazurin coupled fluorescence read); type: biochemical; conditions: hBCAT2, 1 h preincubation at 25° C., one hour reaction; average where tested multiple times
T1 sequence (O15382 28-392): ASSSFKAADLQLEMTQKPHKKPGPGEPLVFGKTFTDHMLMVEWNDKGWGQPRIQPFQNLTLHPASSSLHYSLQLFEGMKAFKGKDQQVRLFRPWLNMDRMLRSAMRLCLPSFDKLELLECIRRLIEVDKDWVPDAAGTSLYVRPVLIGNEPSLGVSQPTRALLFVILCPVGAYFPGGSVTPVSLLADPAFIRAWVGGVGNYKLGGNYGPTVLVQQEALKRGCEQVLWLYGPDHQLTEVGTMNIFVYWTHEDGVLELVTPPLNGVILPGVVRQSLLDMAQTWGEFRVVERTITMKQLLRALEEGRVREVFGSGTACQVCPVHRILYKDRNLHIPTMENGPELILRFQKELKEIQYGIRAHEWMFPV
Procedure, shortened: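 Coupled GDH/diaphorase/resazurin fluorescence (Ex 540/Em 590) read after 1 h reaction at 25 °C, SDS-stopped; enzyme (0.33 μg/mL in mix) first preincubated 1 h with compound, 10-point 3-fold series from 100 μM final, Tris pH 8.0 buffer with NaCl, BSA; technical duplicates, averaged across tests.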

BCAT2 [2] = molecular target: T1, BCAT2; assay: BCAT2 cell inhibition using engineered A549 cells (MUT KO, BCAT1 KO; 13C6-KMV formation by LC-MS/MS); type: cell-based; set-up: expressed endogenous BCAT2; endogenous in cells; host or cells: A549 cells, MUT knockout and BCAT1 knockout
Procedure, shortened: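 Medium 13C6-KMV formation is read by LC-MS/MS after PFBHA derivatization with d8-KMV internal standard. Cells are CRISPR MUT/BCAT1 double-knockout A549 expressing endogenous BCAT2, given compound 15 min before labelled isoleucine (800 uM, added 1:1) for 24 h. CTG viability run in parallel; replicates averaged.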

Structure (SMILES) | IC50 (BCAT2 [1]) | IC50 (BCAT2 [2])
CO[C@H]1C[C@H](NC(=O)c2cc(F)ccn2)C[C@H](n2c(-c3ccccc3F)nc3cnc(-c4nc[nH]n4)cc32)C1 [Example 113, 4-fluoro-N-((1R,3S,5S)-3-(2-(2-fluorophenyl)-6-(1H-1,2,4-triazol-3-yl)-1H-imidazo[4,5-c]pyridin-1-yl)-5-methoxycyclohexyl)picolinamide] | < 100 nM | < 100 nM
CN1C[C@H](NC(=O)c2cc(F)ccn2)C[C@H](n2c(-c3ccccc3F)nc3cnc(-c4nc[nH]n4)cc32)C1 [Example 134, 4-fluoro-N-((3R,5S)-5-(2-(2-fluorophenyl)-6-(1H-1,2,4-triazol-3-yl)-1H-imidazo[4,5-c]pyridin-1-yl)-1-methylpiperidin-3-yl)picolinamide] | < 100 nM | 100 to 500 nM
CCOc1ccc(Cl)cc1C(=O)N[C@H]1CCC[C@@H](n2c(-c3ccccc3F)nc3cnc(-c4nc[nH]n4)cc32)C1 [Example 6, 5-chloro-2-ethoxy-N-((1S,3R)-3-(2-(2-fluorophenyl)-6-(1H-1,2,4-triazol-3-yl)-1H-imidazo[4,5-c]pyridin-1-yl)cyclohexyl)benzamide] | < 100 nM | < 100 nM
O=C1c2cc(Cl)ccc2OCN1[C@H]1CCC[C@@H](n2c(-c3ccccc3F)nc3cnc(-n4nccn4)cc32)[C@@H]1O [Example 214, 6-chloro-3-((1S,2S,3R)-3-(2-(2-fluorophenyl)-6-(2H-1,2,3-triazol-2-yl)-1H-imidazo[4,5-c]pyridin-1-yl)-2-hydroxycyclohexyl)-2,3-dihydro-4H-benzo[e][1,3]oxazin-4-one] | < 100 nM | < 100 nM
O=C(N[C@H]1CCC[C@@H](n2c(-c3ncccc3F)nc3cnc(-c4nc[nH]n4)cc32)C1)c1cc(Cl)ccn1 [Example 15, 4-chloro-N-((1S,3R)-3-(2-(3-fluoropyridin-2-yl)-6-(1H-1,2,4-triazol-3-yl)-1H-imidazo[4,5-c]pyridin-1-yl)cyclohexyl)picolinamide] | < 100 nM | < 100 nM
O=C(N[C@H]1CCC[C@@H](n2c(-c3ccccc3F)nc3cnc(-c4nc[nH]n4)cc32)C1)c1cc(Cl)ccc1OC1CCOC1 (stereo partly drawn) [Example 83, 5-chloro-N-((1S,3R)-3-(2-(2-fluorophenyl)-6-(1H-1,2,4-triazol-3-yl)-1H-imidazo[4,5-c]pyridin-1-yl)cyclohexyl)-2-((tetrahydrofuran-3-yl)oxy)benzamide] | < 100 nM | < 100 nM
O=C(N[C@H]1CCC[C@@H](n2c(-c3ccccc3F)nc3ccc(-c4nc[nH]n4)cc32)C1)c1cc(F)ccn1 [Example 226, 4-fluoro-N-((1S,3R)-3-(2-(2-fluorophenyl)-6-(1H-1,2,4-triazol-3-yl)-1H-benzo[d]imid-azol-1-yl)cyclohexyl)picolin-amide] | < 100 nM | 100 to 500 nM
CC(Oc1ccc(Cl)cc1C(=O)N[C@H]1CCC[C@@H](n2c(-c3ccccc3F)nc3cnc(-c4nc[nH]n4)cc32)C1)C(F)(F)F (stereo partly drawn) [Example 88, 5-chloro-N-((1S,3R)-3-(2-(2-fluorophenyl)-6-(1H-1,2,4-triazol-3-yl)-1H-imidazo[4,5-c]pyridin-1-yl)cyclohexyl)-2-((1,1,1-trifluoropropan-2-yl)oxy)benzamide] | < 100 nM | 100 to 500 nM
CN1C[C@H](N2Cc3ccc(F)cc3C2=O)C[C@H](n2c(-c3ccccc3OCCO)nc3ccc(-c4ncccn4)cc32)C1 [Example 243, 6-fluoro-2-((3R,5S)-5-(2-(2-(2-hydroxyethoxy)phenyl)-6-(pyrimidin-2-yl)-1H-benzo[d]imidazol-1-yl)-1-methylpiper-idin-3-yl)isoindolin-1-one] | < 100 nM | 100 to 500 nM
O=C(N[C@H]1CCC[C@@H](n2c(-c3ccccn3)nc3cnc(-c4nc[nH]n4)cc32)C1)c1cc(Cl)ccn1 [Example 25, 4-chloro-N-((1S,3R)-3-(2-(pyridin-2-yl)-6-(1H-1,2,4-triazol-3-yl)-1H-imidazo[4,5-c]pyridin-1-yl)cyclohexyl)picolinamide] | < 100 nM | 100 to 500 nM
O=C(N[C@H]1CCC[C@@H](n2c(-c3ccccc3F)nc3cnc(-c4ncn(C(F)F)n4)cc32)[C@@H]1O)c1cc(Cl)ccn1 [compound 118] | < 100 nM | < 100 nM
CO[C@H]1C[C@H](N2Cc3ccc(F)cc3C2=O)C[C@H](n2c(-c3c(O)cccc3F)nc3cnc(-c4nc[nH]n4)cc32)C1 [Example 192, 6-fluoro-2-((1R,3S,5R)-3-(2-(2-fluoro-6-hydroxyphenyl)-6-(1H-1,2,4-triazol-3-yl)-1H-imidazo[4,5-c]pyridin-1-yl)-5-methoxycyclohexyl)isoindolin-1-one] | < 100 nM | 100 to 500 nM
O=C(N[C@H]1CCC[C@@H](n2c(-c3ccccc3F)nc3cnc(-c4nc[nH]n4)cc32)C1)c1cc(Cl)ccc1O [Example 53, 5-chloro-N-((1S,3R)-3-(2-(2-fluorophenyl)-6-(1H-1,2,4-triazol-3-yl)-1H-imidazo[4,5-c]pyridin-1-yl)cyclohexyl)-2-hydroxybenzamide] | < 100 nM | < 100 nM
O=C1c2cc(F)ccc2CN1[C@H]1CCC[C@@H](n2c(-c3c(F)cccc3F)nc3cnc(-n4nccn4)cc32)[C@@H]1O [Example 186, 2-((1S,2S,3R)-3-(2-(2,6-difluorophenyl)-6-(2H-1,2,3-triazol-2-yl)-1H-imidazo[4,5-c]pyridin-1-yl)-2-hydroxycyclohexyl)-6-fluoroisoindolin-1-one] | < 100 nM | < 100 nM
CC(C)Oc1ccc(Cl)cc1C(=O)N[C@H]1CCC[C@@H](n2c(-c3ccccc3F)nc3cnc(-c4nc[nH]n4)cc32)C1 [Example 18, 5-chloro-N-((1S,3R)-3-(2-(2-fluorophenyl)-6-(1H-1,2,4-triazol-3-yl)-1H-imidazo[4,5-c]pyridin-1-yl)cyclohexyl)-2-isopropoxybenzamide] | < 100 nM | < 100 nM
CCOc1ccc(Cl)cc1C(=O)N[C@H]1CCC[C@@H](n2c(-c3ccccn3)nc3cnc(-c4nc[nH]n4)cc32)C1 [Example 26, 5-chloro-2-ethoxy-N-((1S,3R)-3-(2-(pyridin-2-yl)-6-(1H-1,2,4-triazol-3-yl)-1H-imidazo[4,5-c]pyridin-1-yl)cyclohexyl)benzamide] | < 100 nM | 100 to 500 nM
CN1C[C@H](NC(=O)c2cc(Cl)ccc2F)C[C@H](n2c(-c3ccccc3F)nc3cnc(-c4nc[nH]n4)cc32)C1 [Example 145, 5-chloro-2-fluoro-N-((3R,5S)-5-(2-(2-fluorophenyl)-6-(1H-1,2,4-triazol-3-yl)-1H-imidazo[4,5-c]pyridin-1-yl)-1-methylpiperidin-3-yl)benzamide] | < 100 nM | 100 to 500 nM
O=C1c2cc(F)ccc2CN1[C@H]1CCC[C@@H](n2c(-c3c(F)cccc3F)nc3cnc(-c4ncccn4)cc32)[C@@H]1O [Example 187, 2-((1S,2S,3R)-3-(2-(2,6-difluorophenyl)-6-(pyrimidin-2-yl)-1H-imidazo[4,5-c]pyridin-1-yl)-2-hydroxycyclohexyl)-6-fluoroisoindolin-1-one] | < 100 nM | 100 to 500 nM
COc1ccc(Cl)cc1C(=O)N[C@H]1C[C@H](OC)C[C@@H](n2c(-c3ccccc3F)nc3cnc(-c4nc[nH]n4)cc32)C1 [Example 106, 5-chloro-N-((1R,3S,5S)-3-(2-(2-fluorophenyl)-6-(1H-1,2,4-triazol-3-yl)-1H-imidazo[4,5-c]pyridin-1-yl)-5-methoxycyclohexyl)-2-methoxybenzamide] | < 100 nM | < 100 nM
